In PubChem BioAssay AID330 (DTP/NCI, 2004):
“And” between values parts separate entries of the source, which are not always exact repeats. Identical values can stand only once. Inconclusive results and toxic doses are left out.

Tested on: P388 leukemia ip, CD2F1 mice, survival T/C
Test: NCI In Vivo Anticancer Drug Screen. Data for tumor model P388 Leukemia (intraperitoneal) in CD2F1 (CDF1) mice
Details: endpoint: median survival time, higher = longer survival
Summary of the method: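 Mice carrying the transplanted tumor received test compound or vehicle. Survival was recorded in each group, and the value is the treated-group measurement divided by that of the vehicle-treated control group.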

[1] = dose: 50.0 mg/kg/injection, schedule: Q01DX005 (ip), vehicle: saline with Tween-80
[2] = dose: 100.0 mg/kg/injection, schedule: Q01DX005 (ip), vehicle: saline with Tween-80
[3] = dose: 200.0 mg/kg/injection, schedule: Q01DX005 (ip), vehicle: saline with Tween-80
[4] = dose: 25.0 mg/kg/injection, schedule: Q01DX009 (ip), vehicle: saline with Tween-80
[5] = dose: 50.0 mg/kg/injection, schedule: Q01DX009 (ip), vehicle: saline with Tween-80
[6] = dose: 100.0 mg/kg/injection, schedule: Q01DX009 (ip), vehicle: saline with Tween-80
[7] = dose: 200.0 mg/kg/injection, schedule: Q01DX009 (ip), vehicle: saline with Tween-80
[8] = dose: 60.0 mg/kg/injection, schedule: Q01DX005 (ip), vehicle: saline
[9] = dose: 120.0 mg/kg/injection, schedule: Q01DX005 (ip), vehicle: saline
[10] = dose: 25.0 mg/kg/injection, schedule: Q01DX009 (ip), vehicle: saline
[11] = dose: 50.0 mg/kg/injection, schedule: Q01DX009 (ip), vehicle: saline

In the case of Clc1ccnc2ccc3ncccc3c12, the T/C (dose: 3.12 mg/kg/injection, schedule: Q04DX002 (ip), vehicle: saline with Tween-80) is reported as 113 % of control, the T/C (dose: 6.25 mg/kg/injection, schedule: Q04DX002 (ip), vehicle: saline with Tween-80) is reported as 103 % of control and the T/C (dose: 12.5 mg/kg/injection, schedule: Q04DX002 (ip), vehicle: saline with Tween-80) is reported as 100 % of control.

CCCC1C(CC)C=C(CC)C(O)C1(CC)CO (stereo not drawn) was tested, and the T/C [1] was 97 % of control, the T/C [2] was 97 % of control and the T/C [3] was 97 % of control.

With CC(=O)C(/C=N/C(N)=O)=C(/C)O the T/C (dose: 50.0 mg/kg/injection, schedule: Q04DX003 (ip), vehicle: saline) was 100 % of control, the T/C (dose: 100.0 mg/kg/injection, schedule: Q04DX003 (ip), vehicle: saline) was 100 % of control and the T/C (dose: 200.0 mg/kg/injection, schedule: Q04DX003 (ip), vehicle: saline) was 110 % of control.

In the case of CNC(=O)Nc1ccnc(=O)[nH]1, the T/C (dose: 50.0 mg/kg/injection, schedule: Q01DX005 (ip), vehicle: Klucel (hydroxypropylcellulose) (HPC)) is reported as 116 % of control.

For COc1ccccc1CC(N)c1nn[nH]n1 (stereo not drawn), the T/C [4] was 96 % of control, the T/C [5] was 98 % of control and 99 % of control and 101 % of control and the T/C [6] was 104 % of control and 89 % of control and 96 % of control. The T/C [7] was 91 % of control and 97 % of control and the T/C (dose: 400.0 mg/kg/injection, schedule: Q01DX009 (ip), vehicle: saline with Tween-80) was 96 % of control.

With COC(=O)[C@@]12C(=O)N[C@@H](Cc3ccccc3)[C@@H]1[C@H](C)C(C)=C[C@@H]2CO the T/C [8] was 98 % of control, the T/C [9] was 95 % of control and the T/C (dose: 240.0 mg/kg/injection, schedule: Q01DX005 (ip), vehicle: saline) was 98 % of control.

With CN(C)CCC(=O)/C=C\c1ccccc1 the T/C [10] was 107 % of control and the T/C [11] was 108 % of control.

With COc1ccc(Cc2cc3c(cc2OCC(=O)Nc2ncccn2)OCO3)cc1 the T/C [1] was 108 % of control, the T/C [2] was 88 % of control and the T/C [3] was 87 % of control.

With CC1(Br)CN(C(=S)Nc2ccccc2)C1=O (stereo not drawn) the T/C [1] was 108 % of control, the T/C [2] was 105 % of control and the T/C [3] was 104 % of control.

With Nc1cccc2c1C(=O)c1nccnc1C2=O the T/C (dose: 100.0 mg/kg/injection, schedule: Q01DX001 (ip), vehicle: Klucel + Tween-80) was 98 % of control, the T/C (dose: 200.0 mg/kg/injection, schedule: Q01DX001 (ip), vehicle: Klucel + Tween-80) was 98 % of control and the T/C (dose: 400.0 mg/kg/injection, schedule: Q01DX001 (ip), vehicle: Klucel + Tween-80) was 97 % of control.

In the case of CCN(CC)CCNc1ccc([N+](=O)[O-])c2sc3cc(Cl)ccc3c(=O)c12, the T/C [1] is reported as 100 % of control, the T/C [2] is reported as 104 % of control and the T/C [3] is reported as 102 % of control.

In the case of COC(=O)c1c(-c2ccccc2)c(C=O)n(C)c1C, the T/C [1] is reported as 99 % of control, the T/C [2] is reported as 98 % of control and the T/C [3] is reported as 91 % of control.

COC(=O)C12CCc3cc(OC)ccc3C1=CC(=O)C2 (stereo not drawn) was tested, and the T/C (dose: 50.0 mg/kg/injection, schedule: Q04DX003 (ip), vehicle: saline with Tween-80) was 101 % of control, the T/C (dose: 100.0 mg/kg/injection, schedule: Q04DX003 (ip), vehicle: saline with Tween-80) was 105 % of control and the T/C (dose: 200.0 mg/kg/injection, schedule: Q04DX003 (ip), vehicle: saline with Tween-80) was 100 % of control. The T/C (dose: 400.0 mg/kg/injection, schedule: Q04DX003 (ip), vehicle: saline with Tween-80) was 100 % of control.

In the case of C1=C(c2ccccc2)N2CCCNC2(c2ccccc2)CS1 (stereo not drawn), the T/C (dose: 100.0 mg/kg/injection, schedule: Q04DX002 (ip), vehicle: saline with Tween-80) is reported as 90 % of control, the T/C (dose: 200.0 mg/kg/injection, schedule: Q04DX002 (ip), vehicle: saline with Tween-80) is reported as 90 % of control and the T/C (dose: 400.0 mg/kg/injection, schedule: Q04DX002 (ip), vehicle: saline with Tween-80) is reported as 88 % of control.

O=[N+]([O-])C1CCC(O)C([N+](=O)[O-])C1 (stereo not drawn) (tested in a mixture with another compound) was tested, and the T/C (dose: 6.25 mg/kg/injection, schedule: Q01DX009 (ip), vehicle: saline with Tween-80) was 100 % of control, the T/C (dose: 12.5 mg/kg/injection, schedule: Q01DX009 (ip), vehicle: saline with Tween-80) was 96 % of control and the T/C [4] was 99 % of control.

With O=c1[nH]c(=O)n2c(c1-c1ccccc1)OC(CBr)C2 (stereo not drawn) the T/C [5] was 98 % of control, the T/C [6] was 98 % of control and the T/C [7] was 86 % of control.

O=C(O)Cn1/c(=N\N=C\c2ccccc2)sc2ccccc21 was tested, and the T/C (dose: 100.0 mg/kg/injection, schedule: Q01DX001 (ip), vehicle: saline with Tween-80) was 101 % of control, the T/C (dose: 200.0 mg/kg/injection, schedule: Q01DX001 (ip), vehicle: saline with Tween-80) was 91 % of control and the T/C (dose: 400.0 mg/kg/injection, schedule: Q01DX001 (ip), vehicle: saline with Tween-80) was 93 % of control.

With CNC(=O)OCc1c(COC(=O)NC)c(-c2ccc(C(C)(C)C)cc2)n(C)c1C the T/C (dose: 6.25 mg/kg/injection, schedule: Q01DX009 (ip), vehicle: distilled water + Tween-80) was 150 % of control and 152 % of control, the T/C (dose: 12.5 mg/kg/injection, schedule: Q01DX009 (ip), vehicle: distilled water + Tween-80) was 155 % of control and the T/C (dose: 25.0 mg/kg/injection, schedule: Q01DX009 (ip), vehicle: distilled water + Tween-80) was 150 % of control and 158 % of control. The T/C (dose: 50.0 mg/kg/injection, schedule: Q01DX009 (ip), vehicle: distilled water + Tween-80) was 97 % of control.

For O=c1c2ccccc2sc2cccc(NCCN3CCC(C4CCN(CCNc5cccc6sc7ccccc7c(=O)c56)CC4)CC3)c12, the T/C (dose: 6.25 mg/kg/injection, schedule: Q01DX005 (ip), vehicle: saline with Tween-80) was 105 % of control, the T/C (dose: 12.5 mg/kg/injection, schedule: Q01DX005 (ip), vehicle: saline with Tween-80) was 90 % of control and the T/C [1] was 96 % of control. For the same compound, the T/C [2] was 92 % of control.

For COC(=O)CC1(C(=O)OC)C2=C(CCSC2)N2CCCC21 (stereo not drawn), the T/C (dose: 3.75 mg/kg/injection, schedule: Q01DX009 (ip), vehicle: Klucel (hydroxypropylcellulose) (HPC)) was 97 % of control, the T/C (dose: 7.5 mg/kg/injection, schedule: Q01DX009 (ip), vehicle: Klucel (hydroxypropylcellulose) (HPC)) was 97 % of control and the T/C (dose: 15.0 mg/kg/injection, schedule: Q01DX009 (ip), vehicle: Klucel (hydroxypropylcellulose) (HPC)) was 100 % of control. For the same compound, the T/C (dose: 30.0 mg/kg/injection, schedule: Q01DX009 (ip), vehicle: Klucel (hydroxypropylcellulose) (HPC)) was 100 % of control.

With Nc1ncnc2ccc(Cl)cc12 the T/C [5] was 105 % of control, the T/C [6] was 100 % of control and the T/C [7] was 107 % of control.

With O=NNc1nc2ccccc2[nH]1 the T/C (dose: 3.12 mg/kg/injection, schedule: Q01DX009 (ip), vehicle: water) was 99 % of control, the T/C (dose: 6.25 mg/kg/injection, schedule: Q01DX009 (ip), vehicle: water) was 103 % of control and the T/C (dose: 12.5 mg/kg/injection, schedule: Q01DX009 (ip), vehicle: water) was 109 % of control. The T/C (dose: 25.0 mg/kg/injection, schedule: Q01DX009 (ip), vehicle: water) was 103 % of control and 98 % of control, the T/C (dose: 50.0 mg/kg/injection, schedule: Q01DX009 (ip), vehicle: water) was 100 % of control and 97 % of control and the T/C (dose: 100.0 mg/kg/injection, schedule: Q01DX009 (ip), vehicle: water) was 97 % of control. The T/C (dose: 200.0 mg/kg/injection, schedule: Q01DX009 (ip), vehicle: water) was 91 % of control.

With NC1C(=O)Nc2ccccc21 (stereo not drawn) the T/C [8] was 95 % of control and the T/C [9] was 103 % of control.

Cc1cccc(N(CCO)CCC#N)c1 was tested, and the T/C (dose: 50.0 mg/kg/injection, schedule: Q01DX005 (ip), vehicle: distilled water + Tween-80 + alcohol) was 102 % of control, the T/C (dose: 100.0 mg/kg/injection, schedule: Q01DX005 (ip), vehicle: distilled water + Tween-80 + alcohol) was 101 % of control and the T/C (dose: 200.0 mg/kg/injection, schedule: Q01DX005 (ip), vehicle: distilled water + Tween-80 + alcohol) was 94 % of control.

CC(=O)Oc1ccc2c3c1O[C@H]1[C@@H](OC(C)=O)C=C[C@H]4[C@@H](C2)N(C)CC[C@@]341 was tested, and the T/C (dose: 0.39 mg/kg/injection, schedule: Q01DX009 (ip), vehicle: saline) was 100 % of control, the T/C (dose: 0.78 mg/kg/injection, schedule: Q01DX009 (ip), vehicle: saline) was 101 % of control and the T/C (dose: 1.56 mg/kg/injection, schedule: Q01DX009 (ip), vehicle: saline) was 94 % of control. The T/C (dose: 3.12 mg/kg/injection, schedule: Q01DX009 (ip), vehicle: saline) was 95 % of control, the T/C (dose: 6.25 mg/kg/injection, schedule: Q01DX009 (ip), vehicle: saline) was 100 % of control and the T/C (dose: 12.5 mg/kg/injection, schedule: Q01DX009 (ip), vehicle: saline) was 110 % of control. For the same compound, the T/C [10] was 100 % of control, the T/C [11] was 108 % of control and the T/C (dose: 100.0 mg/kg/injection, schedule: Q01DX009 (ip), vehicle: saline) was 117 % of control. For the same compound, the T/C (dose: 200.0 mg/kg/injection, schedule: Q01DX009 (ip), vehicle: saline) was 110 % of control.
